Measurements published in paper PMC3962780 (ChemMedChem, 2013).
Each block holds one compound with its values, some of them ahead of it.

Experiments:
[1] = biological target: T1, recombinant HDAC8 (purified from E. coli) (Homo sapiens, UniProt Q9BY41); assay: HDAC activity assay, recombinant HDAC8; type: biochemical
T1 sequence (Q9BY41 1-377): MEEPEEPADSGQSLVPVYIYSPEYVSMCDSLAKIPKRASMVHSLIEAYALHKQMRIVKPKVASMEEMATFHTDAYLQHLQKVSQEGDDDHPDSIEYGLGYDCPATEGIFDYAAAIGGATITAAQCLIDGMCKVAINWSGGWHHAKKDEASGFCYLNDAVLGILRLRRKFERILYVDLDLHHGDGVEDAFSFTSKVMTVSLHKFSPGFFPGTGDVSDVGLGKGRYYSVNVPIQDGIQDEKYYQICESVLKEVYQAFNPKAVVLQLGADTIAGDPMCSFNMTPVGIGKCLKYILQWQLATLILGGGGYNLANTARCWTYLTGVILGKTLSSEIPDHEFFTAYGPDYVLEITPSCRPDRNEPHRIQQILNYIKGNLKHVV

human recombinant HDAC1 = human recombinant HDAC1 (Homo sapiens, UniProt Q13547); assay: HDAC activity assay, recombinant HDAC1; type: biochemical
human recombinant HDAC3 = human recombinant HDAC3 (Homo sapiens, UniProt O15379); assay: HDAC activity assay, recombinant HDAC3; type: biochemical
human recombinant HDAC2 = human recombinant HDAC2 (Homo sapiens, UniProt Q92769); assay: HDAC activity assay, recombinant HDAC2; type: biochemical
MDA-MB-231 ER(−) cells = assay: Cytotoxicity assay; type: cell-based, human; details: hybrid molecules 10 μM; 24, 48 and 72 h
ERα [2] = biological target: T2, ERα (Homo sapiens, UniProt P03372); assay: Inhibition of 17β estradiol induced ERE-luciferase activity in MCF-7 cells; type: cell-based; details: cotreatment with E2
T2 sequence (P03372 1-595): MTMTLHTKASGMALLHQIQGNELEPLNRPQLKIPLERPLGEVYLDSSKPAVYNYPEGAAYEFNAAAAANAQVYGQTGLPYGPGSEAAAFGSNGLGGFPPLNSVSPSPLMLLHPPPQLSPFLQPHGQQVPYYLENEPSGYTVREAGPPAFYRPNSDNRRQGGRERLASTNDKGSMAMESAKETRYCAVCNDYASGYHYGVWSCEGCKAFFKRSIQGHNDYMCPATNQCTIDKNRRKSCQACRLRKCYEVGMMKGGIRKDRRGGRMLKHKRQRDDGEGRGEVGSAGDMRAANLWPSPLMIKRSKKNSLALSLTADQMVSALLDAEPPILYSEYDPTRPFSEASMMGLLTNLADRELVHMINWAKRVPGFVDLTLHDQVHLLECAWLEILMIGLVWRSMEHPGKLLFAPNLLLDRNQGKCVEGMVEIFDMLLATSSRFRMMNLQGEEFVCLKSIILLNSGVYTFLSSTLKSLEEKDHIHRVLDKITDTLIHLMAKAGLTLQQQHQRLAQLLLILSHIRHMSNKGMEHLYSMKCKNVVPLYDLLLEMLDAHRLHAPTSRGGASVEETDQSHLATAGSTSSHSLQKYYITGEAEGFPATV

ERα [3] = biological target: T2, ERα; assay: Ishikawa alkaline phosphatase assay; type: cell-based
MCF-7 ER(+) cells = assay: Cytotoxicity assay; type: cell-based, human
MCF-7 cells = details: MCF-7, 48 h, 4-OHT 10 μM; ref Bicaku et al. [9b]; cited from earlier work

human recombinant HDAC3, sequence (O15379 whole entry): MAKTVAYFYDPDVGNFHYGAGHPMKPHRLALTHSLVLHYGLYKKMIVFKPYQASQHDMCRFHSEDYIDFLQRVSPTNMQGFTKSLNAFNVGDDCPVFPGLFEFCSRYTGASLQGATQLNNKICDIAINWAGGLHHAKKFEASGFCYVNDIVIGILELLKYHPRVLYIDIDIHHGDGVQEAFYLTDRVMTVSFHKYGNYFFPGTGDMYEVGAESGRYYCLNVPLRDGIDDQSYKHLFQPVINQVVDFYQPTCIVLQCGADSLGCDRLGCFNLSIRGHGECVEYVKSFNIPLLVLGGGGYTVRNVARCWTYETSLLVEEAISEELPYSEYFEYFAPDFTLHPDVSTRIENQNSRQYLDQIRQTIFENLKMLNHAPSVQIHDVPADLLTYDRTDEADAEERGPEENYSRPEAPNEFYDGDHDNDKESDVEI
human recombinant HDAC3, sequence (Q9Y618 395-489 partner limits assumed): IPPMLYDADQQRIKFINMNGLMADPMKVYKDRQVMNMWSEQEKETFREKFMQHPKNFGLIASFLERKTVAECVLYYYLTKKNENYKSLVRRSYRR
human recombinant HDAC1, sequence (Q13547 whole entry): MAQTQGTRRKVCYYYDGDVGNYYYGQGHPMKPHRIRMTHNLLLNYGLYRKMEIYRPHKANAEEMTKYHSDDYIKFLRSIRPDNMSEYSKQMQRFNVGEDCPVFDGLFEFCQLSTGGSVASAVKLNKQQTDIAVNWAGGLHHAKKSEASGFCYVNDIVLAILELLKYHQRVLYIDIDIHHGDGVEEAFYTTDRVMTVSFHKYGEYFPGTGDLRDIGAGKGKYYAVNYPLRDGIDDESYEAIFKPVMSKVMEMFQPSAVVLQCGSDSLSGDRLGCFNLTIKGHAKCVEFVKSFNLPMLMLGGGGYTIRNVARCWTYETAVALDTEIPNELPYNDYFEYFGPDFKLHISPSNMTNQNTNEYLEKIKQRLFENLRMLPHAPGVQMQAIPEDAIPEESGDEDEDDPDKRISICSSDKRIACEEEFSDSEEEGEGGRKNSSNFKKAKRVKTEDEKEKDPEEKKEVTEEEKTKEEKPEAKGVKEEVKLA
human recombinant HDAC2, sequence (Q92769 whole entry): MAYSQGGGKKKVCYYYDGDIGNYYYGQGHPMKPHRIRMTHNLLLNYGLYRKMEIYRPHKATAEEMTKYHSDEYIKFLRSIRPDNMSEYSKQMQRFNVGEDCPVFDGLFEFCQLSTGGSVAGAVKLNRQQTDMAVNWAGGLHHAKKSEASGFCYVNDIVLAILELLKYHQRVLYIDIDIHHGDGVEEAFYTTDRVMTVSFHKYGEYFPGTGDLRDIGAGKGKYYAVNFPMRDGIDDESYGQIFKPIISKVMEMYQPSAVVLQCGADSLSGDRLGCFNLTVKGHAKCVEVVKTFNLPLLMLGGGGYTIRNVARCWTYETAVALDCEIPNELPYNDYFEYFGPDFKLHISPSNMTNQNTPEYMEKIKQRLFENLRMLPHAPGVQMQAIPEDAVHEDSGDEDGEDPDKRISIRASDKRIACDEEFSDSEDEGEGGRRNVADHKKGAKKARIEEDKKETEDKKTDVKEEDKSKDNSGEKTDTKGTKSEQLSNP

IC50 [1]: 719 ± 63 nM
IC50 (human recombinant HDAC1): 596 ± 51 nM
IC50 (human recombinant HDAC3): 214 ± 6 nM
IC50 (human recombinant HDAC2): 2440 ± 20 nM
SMILES: O=C(CCCCCNC(=O)c1c(-c2ccc(O)cc2)sc2cc(O)ccc12)NO [8a, 6-hydroxy-N-(6-(hydroxyamino)-6-oxohexyl)-2-(4-hydroxyphenyl)benzo[b]thiophene-3-carboxamide]

SMILES: O=C(CCCCCn1cc(-c2ccc(C(=O)c3c(-c4ccc(O)cc4)sc4cc(O)ccc34)cc2)nn1)NO [15b, N-hydroxy-6-(4-(4-(6-hydroxy-2-(4-hydroxyphenyl)benzo[b]thiophene-3-carbonyl)phenyl)-1H-1,2,3-triazol-1-yl)hexanamide]
Cell death in MDA-MB-231 ER(−) cells (MDA-MB-231 ER(−) cells): caused significant cell death
Inhibition of estrogenic response (antiestrogenic activity), ERE-luciferase reporter (ERα [2]): concentration dependent inhibition of estrogenic response
IC50 (ERα [3]): 2900 ± 300 nM

SMILES: O=C(Nc1cc(-c2ccccc2)ccc1O)c1c(-c2ccc(O)cc2)sc2cc(O)ccc12 [compound 10, 6-hydroxy-N-[4-hydroxy-(1,1′-biphenyl)-3-yl]-2-(hydroxyphenyl)benzo[b]thiophene-3-carboxamide]
% inhibition of HDAC1 (human recombinant HDAC1; pre-incubation 3 h): 21–34%
% inhibition of HDAC3 (human recombinant HDAC3; pre-incubation 3 h): 0–12%

IC50 [1]: 23500 ± 1500 nM
IC50 (human recombinant HDAC1): 8390 ± 300 nM
IC50 (human recombinant HDAC3): 5740 ± 530 nM
IC50 (human recombinant HDAC2): 19200 ± 650 nM
SMILES: O=C(CCCCn1cc(-c2ccc(C(=O)c3c(-c4ccc(O)cc4)sc4cc(O)ccc34)cc2)nn1)NO [15a, N-hydroxy-5-(4-(4-(6-hydroxy-2-(4-hydroxyphenyl)benzo[b]thiophene-3-carbonyl)phenyl)-1H-1,2,3-triazol-1-yl)pentanamide]

SMILES: Oc1ccc(-c2sc3cc(O)ccc3c2Oc2ccc(OCCN3CCCCC3)cc2)cc1 [DMA, desmethylarzoxifene]
Toxicity towards MCF-7 cells (MCF-7 ER(+) cells; 10 μM, 72 h treatment): toxic

SMILES: CC/C(=C(\c1ccc(O)cc1)c1ccc(OCCN(C)C)cc1)c1ccccc1 [4OHT, 4-hydroxytamoxifen]
Cell death, combination with SAHA (MCF-7 ER(+) cells; ER(+) MCF-7 cells, 72 h combination treatment): modest but significantly increased cell death
Increase in apoptosis in combination with SAHA over SAHA alone (MCF-7 cells): approximately 10%

SMILES: O=C(CCCCCCNC(=O)c1c(-c2ccc(O)cc2)sc2cc(O)ccc12)NO [8b, 6-hydroxy-N-(7-(hydroxyamino)-7-oxoheptyl)-2-(4-hydroxyphenyl)benzo[b]thiophene-3-carboxamide]
Inhibition of estrogenic response (antiestrogenic activity), ERE-luciferase reporter (ERα [2]): concentration dependent inhibition of estrogenic response
